Measured values reported in PMC3130785, “Small Compound 6-O-Angeloylplenolin Induces Mitotic Arrest and Exhibits Therapeutic Potentials in Multiple Myeloma” (PLoS ONE, 2011).

Assays:
U266 cells = assay: Immunofluorescence analysis of microtubules (anti-α-tubulin); assay type: cell-based, human; details: 5 to 7.5 µM for 24 h or 7.5 µM for 12 to 24 h
Procedure: Both control and 6-OAP-treated MM cells were plated on glass slides by centrifugation using a cytospin, air-dried for 5 min at room temperature, and fixed with 4% paraformaldehyde for 15 min. After a brief washing in PBS with 100 mM glycine, slides were blocked with 5% bovine serum albumin (BSA; Sigma) and 0.3% Triton X-100 in PBS for 30 min at room temperature. Microtubules were detected with indicated antibodies diluted 1∶50 in 5% BSA in PBS overnight at 4°C and FITC or rhodamine-conjugated secondary antibodies (Santa Cruz) diluted 1∶200 in 5% BSA in PBS for 1.5 h at 37°C. Cells were then washed three times with PBS. Nuclei were stained with DAPI (Sigma).
Figure 2 6-OAP induces mitotic arrest in MM cells. (A) U266 cells were treated with 6-OAP at 7.5 µM for 0, 24, 48 h and imaged by Leica DMI 400B microscope. (B) U266 cells were treated with 6-OAP at indicated concentrations for 48 h. Cell cycle distribution was determined by flow cytometry. (C) MM.1S cells were treated with 5 µM 6-OAP for 48 h. Cell cycle distribution was determined by flow cytometry. (D) U266 cells were treated with 6-OAP at 5 to 7.5 µM for 24 h (left panel) or at 7.5 µM for 12 to 24 h (right panel). For immunofluorescence analysis of microtubules, cells was stained with an anti-α-tubulin antibody to visualize microtubules (green) and DAPI to counter stained DNA (blue) and observed by confocal microscopy. […]

phosphorylated H3 (pH3) = assay: Western blotting of mitotic marker; assay type: cell-based, human; details: U266, MM.1S and CD138+ primary cells; 24 h
Procedure: Cell pellets were lysed in RIPA buffer containing 50 mM Tris pH 8.0, 150 mM NaCl, 0.1% SDS, 0.5% deoxycholate, 1% NP-40, 1 mM DTT, 1 mM NaF, 1 mM sodium vanadate, and protease inhibitors cocktail (Sigma). For immunoprecipitations, cells were lysed on ice for 15 minutes in RIPA buffer. Lysates were centrifuged. The supernatant was incubated with indicated antibodies overnight, after which protein A/G Plus beads (Santa Cruz Biotechnology) were added and incubated for 3 h. The beads were washed 4 times in RIPA buffer. Then the beads were resuspended in 1× sample buffer and boiled for 3 min. Protein extracts were quantitated and loaded on 8% to 12% sodium dodecyl sulfate polyacrylamide gel, electrophoresed, and transferred to a nitrocellulose membrane (Whatman). The membrane was incubated with primary antibody, washed, and incubated with horseradish peroxidase (HRP)–conjugated secondary antibody (Pierce). Detection was performed by using a chemiluminescent western detection kit (Cell Signaling). […]
Figure 2 6-OAP induces mitotic arrest in MM cells. […] Cell cycle distribution was determined by flow cytometry. […] Cell cycle distribution was determined by flow cytometry. […]

## CC=C(C)C(=O)OC1C2C(CC(C)C3C=CC(=O)C31C)OC(=O)C2C (centres unmarked) [6-OAP, 6-O-angeloylplenolin]
U266 cells
  cellular microtubule network / mitotic spindle: cellular microtubules assembled to form mitotic spindle
Phosphorylated H3 (pH3)
  expression of pH3: up-regulated pH3
